Source: patent publication US7968595B2, “Substituted 4-aryl-chromene as activator of caspases and inducer of apoptosis and as antivascular agent and the use thereof” (Cytovia, Inc., priority 2006, dated 2011)
pEC50: −log10 of the molar value.

Key:
[1] = system: T-47D; experiment: Caspase activation assay in T-47D cells; type: cell-based; conditions: Homo sapiens; T47D cells, 24 h incubation; read-out: Caspase activation potency EC50 T47D
Protocol: (§1) Human breast cancer cell lines T-47D and ZR-75-1, human colon cancer cell line DLD-1 and human non-small cell lung cancer cell line H1299 were grown according to media component mixtures designated by American Type Culture Collection+10% FCS (Invitrogen Corporation), in a 5% CO2−95% humidity incubator at 37° C. T-47D and ZR-75-1 cells were maintained at a cell density between 30 and 80% confluency at a cell density of 0.1 to 0.6×10^6 cells/mL. Cells were harvested at 600×g and resuspended at 0.65×10^6 cells/mL into appropriate media+10% FCS. An aliquot of […] of cells was added to a well of a 96-well microtiter plate containing 5 μl of a 10% DMSO in RPMI-1640 media solution containing about 0.16 to 10 μM of 2,7,8-triamino-4-(3-bromo-4,5-dimethoxy-phenyl)-3-cyano-4H-chromene (1) or other test compounds (0.016 to 1 μM final). An aliquot of 45 μl of cells was added to a well of a 96-well microtiter plate containing 5 μl of a 10% DMSO in RPMI-1640 media solution without test compound as the control sample. The samples were mixed by agitation and then incubated at 37° C. for 24 h in a 5% CO2−95% humidity incubator. After incubation, the samples were removed from the incubator and 50 μl of a solution containing 20 μM of N-(Ac-DEVD)-N′-ethoxycarbonyl-R110 (SEQ ID No:1) fluorogenic substrate (Cytovia, Inc.; U.S. Pat. No. 6,335,429), 20% sucrose (Sigma), 20 mM DTT (Sigma), 200 mM NaCl (Sigma), 40 mM Na PIPES buffer pH 7.2 (Sigma), and 500 μg/ml lysolecithin (Calbiochem) was added. The samples were mixed by agitation and incubated at room temperature. Using a fluorescent plate reader (Model 1420 Wallac Instruments), an initial reading (T=0) was made about 1-2 min after addition of the substrate solution, employing excitation at 485 nm and emission at 530 nm, to determine the background fluorescence of the control sample. After the 3 h incubation, the samples were read for fluorescence as above (T=3 h).
(§2) The Relative Fluorescence Unit values (RFU) were used to calculate the sample readings as follows: RFU(T=3h)−Control RFU(T=0)=Net RFU(T=3h)
(§3) The activity of caspase cascade activation was determined by the ratio of the net RFU value for 2,7,8-triamino-4-(3-bromo-4,5-dimethoxy-phenyl)-3-cyano-4H-chromene or other test compound to that of control samples. The EC50 (nM) was determined by a sigmoidal dose-response calculation (Prism 2.0, GraphPad Software Inc.).

[2] = system: H1299; experiment: Caspase activation assay in H1299 cells; type: cell-based; conditions: Homo sapiens, NCI-H1299, 24 h incubation, read-out: Caspase activation potency EC50 H1299
Protocol: as §1, §2, §3

[3] = system: MX-1; experiment: Inhibition of cell proliferation (GI50), MX-1; type: cell-based; conditions: Homo sapiens; MX1 cells, 72 h, CellTiter-Glo
Protocol: (§4) Human breast cancer cells MX-1 and MDAMB435, hepatocarcinoma cells SNU398, colon cancer cells HCT116 and HeLa cells were grown and harvested as in Example 7. An aliquot of […] of cells (4.4×10^4 cells/mL) was added to a well of a 96-well microtiter plate containing 5 μL of a 10% DMSO in RPMI-1640 media solution containing 10 nM to 100 μM of R(−)-2,7,8-triamino-4-(3-bromo-4,5-dimethoxy-phenyl)-3-cyano-4H-chromene (1 nM to 10 μM final). An aliquot of 45 μL of cells was added to a well of a 96-well microtiter plate containing 5 μL of a 10% DMSO in RPMI-1640 media solution without compound as the control sample for maximal cell proliferation (LMax). The samples were mixed by agitation and then incubated at 37° C. for 72 h in a 5% CO2−95% humidity incubator. After incubation, the samples were removed from the incubator and 25 μL of CellTiter-Glo™ reagent (Promega) was added. The samples were mixed by agitation and incubated at room temperature for 10-15 min. Plates were then read using a luminescent plate reader (Model SPECTRAfluor Plus, Tecan) to give Ltest values.
(§5) Baseline for GI50 (dose for 50% inhibition of cell proliferation) of initial cell numbers was determined by adding an aliquot of 45 μL of cells or 45 μL of media, respectively, to wells of a 96-well microtiter plate containing 5 μL of a 10% DMSO in RPMI-1640 media solution. […]

[4] = system: HeLa cells; experiment: Inhibition of cell proliferation (GI50), HeLa; type: cell-based; conditions: Homo sapiens, 72 h, CellTiter-Glo
Protocol: as §4, §5

[5] = system: MDAMB435; experiment: Inhibition of cell proliferation (GI50), MDAMB435; type: cell-based; conditions: Homo sapiens, MDA-MB-435; MDAMB435 cells, 72 h, CellTiter-Glo
Protocol: as §4, §5

[6] = system: HCT116; experiment: Inhibition of cell proliferation (GI50), HCT116; type: cell-based; conditions: Homo sapiens, HCT-116; HCT116 cells, 72 h, CellTiter-Glo
Protocol: as §4, §5

[7] = system: MX1 human breast cancer tumors; experiment: In vivo antitumor activity in MX-1 model, single agent; set-up: species or system mice
Protocol: MX1 human breast cancer tumors were obtained from the NCI-FCRDC and maintained as tumors in nude mice. Tumor bits were implanted with a trocar into the right mammary area of female nu/nu mice and allowed to grow to an average size of 200-250 mg, about 12 days after being implanted. Animals were randomized and assigned to study groups of 8-10 animals/group. Body weight were determined and tumor size were measured by calipers and converted to volume by the standard formula of Vol=L×W^2/2. Compound 1R was formulated in 7% PEG400/9% Tween80/84% D5W and administered IV via the tail vein at the indicated days and doses. Day 1 of the study was the first day of treatment. Survival time was the number of days for the tumor to reach 1000 mg or death, whichever occurred earliest. Median survival is the median for the group.

[8] = system: solid tumor cells; experiment: Caspase cascade activation and induction of apoptosis, overall statement; type: cell-based, human; conditions: summary of Table I
Protocol: as §1, with “After incubation, the samples were removed from the incubator and 50 μl of a solution containing 20 μM of N-(Ac-DEVD)-N′-ethoxycarbonyl-R110 (SEQ ID No:1) fluorogenic substrate (Cytovia, Inc.; U.S. Pat. No. 6,335,429), 20% sucrose (Sigma), 20 mM DTT (Sigma), 200 mM NaCl (Sigma), 40 mM Na PIPES buffer pH 7.2 (Sigma), and 500 μg/ml lysolecithin (Calbiochem) was added. The samples were mixed by agitation and incubated at room temperature.” left out
as §3

COc1cc([C@H]2C(C#N)=C(N)Oc3c2ccc(N)c3N)cc(Br)c1OC [Compound 1R, R(−)-2,7,8-triamino-4-(3-bromo-4,5-dimethoxy-phenyl)-3-cyano-4H-chromene]
pEC50 [1]: 7.68
pEC50 [2]: 7.21
GI50 [3]: 0.017 µM
GI50 [4]: 0.025 µM
GI50 [5]: 0.009 µM
GI50 [6]: 0.019 µM
Median survival time ([7]; 20 mg/kg IV, once a day for days 1-3 (QD × 3)): 19 days
Median survival time ([7]; 20 mg/kg IV, once a day for days 1-5 (QD × 5)): 46 days
Median survival time ([7]; 20 mg/kg IV, once a week, day 1, 8, 15 (QW × 3)): 27.5 days
Median survival time ([7]; 40 mg/kg IV, once a day for days 1-3 (QD × 3)): 38 days
Median survival time ([7]; 40 mg/kg IV, once a day for days 1-5 (QD × 5)): >100 days
Median survival time ([7]; 40 mg/kg IV, once a week, day 1, 8, 15 (QW × 3)): 41 days
Median survival time ([7]; 60 mg/kg IV, once a day for days 1-3 (QD × 3)): 78 days
Median survival time ([7]; 60 mg/kg IV, once a week, day 1, 8, 15 (QW × 3)): 37.5 days
Caspase cascade activator and inducer of apoptosis (in words) [8]: potent caspase cascade activator and inducer of apoptosis
